Experimental data as given in US20260284076A1, “TESTOSTERONE AND DIFLUOROMETHYLORNITHINE COMBINATION THERAPY FOR PROSTATE CANCER” (The Johns Hopkins University, priority 2023, published 2026).
Where two headings read alike, the source gives them in different places.

What was measured:
[1] = tested on: patients with CRPC progressing on Enza (Cohort A) or Abi (Cohort B); format: in vivo, human
Excerpt: The RESTORE study (NCT02090114) was an NIH sponsored Phase II study designed to assess the safety and efficacy of BAT in patients (n=30 per cohort) with CRPC progressing on Enza (Cohort A) or Abi (Cohort B), FIG. 18A (34,39). The primary endpoint of the first part of the study was to assess PSA response to BAT. Secondary endpoints included objective response, safety, and quality of life. The second part of the study was to determine in BAT could re-sensitize patients to repeat exposure to second line therapy that patients were progressing on prior to receiving BAT. Thus, patients progressing on Enza were re-exposed to Enza after BAT and similarly for Abi. Both arms of this study met the primary endpoint. PSA50 response to BAT was 30% in patient's post-Enza and 18% post-Abi, FIG. 18B. […] Overall duration of response to BAT and duration of response to re-exposure was longer in the post-Enza vs. post-Abi cohort. The PSAso response to re-exposure to Enza was 71% vs. only 21% for patients re-exposed to Abi, FIG. 19B (7). A third cohort was later added (Cohort C) for patients progressing on ADT alone. Overall, 90 patients were treated on this study over a 4-year period (2014-2018).

[2] = tested on: chronically castrated patients with rising PSA and CRPC; assay: Pilot study of BAT with oral etoposide, then second line therapy post-BAT; format: in vivo, human; conditions: for PSA decline upon re-challenge: agent previously progressed on
Excerpt: Based on the preclinical results and potential mechanisms for growth inhibition that include androgen-induced double strand breaks and stabilization of AR preventing relicensing, we have conducted a pilot study evaluating the efficacy and safety of pharmacologic doses of testosterone to produce high dose T levels in conjunction with oral etoposide in chronically castrated patients with rising PSA and CRPC (37). Patients who had been continuously castrate for more than one year with minimal metastatic disease burden (≤5 total bone metastases and ≤10 total sites of metastases) and/or rising PSA were eligible. To achieve rapid cycling between high dose and near castrate serum T (i.e., BAT) patients received intramuscular injection of 400 mg testosterone cypionate every 28 days. For the first 3 cycles of therapy patients received BAT plus oral etoposide 100 mg po/day days 1-14 of a 28-day cycle. After 3 cycles PSA response and objective response were assessed. Those patients with a PSA that was declining from peak levels and no objective evidence of disease progression or worsening pain were continued on therapy. Given the toxicity associated with etoposide and the lack of clinical response in an earlier trial (38), patients who responded after 3 cycles of testosterone plus etoposide were continued on testosterone alone based on protocol amendment.

patients with CRPC [3] = assay: BAT clinical studies, overall experience; format: in vivo, human
Excerpt: A major driver of castration resistance is the adaptive upregulation of AR activity, often through AR protein overexpression, to a sufficient level to allow for renewed growth. This marked overexpression of AR makes PCa cells once again vulnerable to hormone shock, achieved not through further androgen blockade, but through exposure to supraphysiologic levels of androgen (SPA). Based on extensive preclinical studies, we developed Bipolar Androgen Therapy (BAT), which involves cyclic administration of SPA as treatment for CRPC.
Inhibition of signaling through the androgen receptor (AR) is the mainstay of treatment of advanced PCa. […] This phase of the disease is associated with poor prognosis and limited therapeutic options. The majority of PCas are addicted to signaling through AR and adaptively upregulate AR-activity, via mechanisms such as AR overexpression, to permit sustained AR signaling despite castration and AR inhibitors (1,2). Studies dating back nearly thirty years indicate that high expression of AR induced by prolonged castration becomes a vulnerability of CRPC cells in vitro and in mouse xenografts to supraphysiological androgen (SPA), which induces cell death and growth arrest in this context (3,4). On the basis of these studies, we developed an innovative treatment called Bipolar Androgen Therapy (BAT) for patients with CRPC, in which SPA is administered intermittently to result in cycling of serum testosterone from supraphysiological to near castrate levels. This rapid cycling is intended to reduce adaptation AR regulation associated with chronic exposure to high or low levels of testosterone, while simultaneously targeting the spectrum of AR expression present in heterogeneous CRPC tumors (5). We have now tested BAT in more than 350 patients with CRPC (6-10).

patients with CRPC [4] = assay: Plasma putrescine in patients treated with BAT (COMBAT trial); conditions: human, in vivo
Excerpt: (§1) Vinculin was used as a loading control. FIG. 2F, Polyamine synthesis pathway.

MYC = MYC expression in metastatic tumor biopsies before and after BAT; format: in vivo, human; conditions: responding patients
Excerpt: (§2) FIG. 5A, FIG. 5B, FIG. 5C, FIG. 5D, and FIG. 5E show: FIG. 5A, MYC expression by IHC in a metastatic tumor biopsy from a patient before and after 3 months of BAT. FIG. 5B, Quantification of MYC protein expression from metastatic tumor biopsies from patients before and after 3 months of BAT color-coded by response (non-responder NR; responder R). […] Vinculin was used as a loading control. FIG. 5D, Principal component analysis of RNA and ATAC sequencing of LNCaP cells treated for 5 days with R1881 10 nM (SPA). […] Vinculin was used as a loading control;

[5] = tested on: asymptomatic patients with CRPC progressing on Abi; assay: TRANSFORMER randomized Phase II study, BAT vs. Enza with crossover; format: in vivo, human
Description: The TRANSFORMER study (NCT02286921) was a DOD-sponsored randomized Phase II study designed to compare the efficacy of BAT vs. Enza in asymptomatic patients with CRPC progressing on Abi, FIG. 19A (2). The study was conducted at 17 academic centers across the US. The study was coordinated by the Prostate Cancer Disease Group clinical research team at Johns Hopkins, who performed regulatory oversight, study/site monitoring, and data analyses. From 2015-2018, 195 patients underwent 1:1 randomization to either standard dose Enza (n=101) or BAT (n=94) at 400 mg IM every 28 days. The primary endpoint was clinical/radiographic PFS. At time of progression, patients were given the option to crossover to the alternate therapy. The trial was designed to show a 50% improvement in the primary endpoint for BAT vs. Enza. […] Objective response was 24.4% for BAT and 4.2% for Enza (p=0.067). Best PSA50 was 26.4% for BAT and 25.5% for Enza (p=0.697).
At time of progression, 46 (49%) of patients on the Enza arm crossed over to receive BAT and 34 (33.7%) crossed over from BAT to receive Enza and were available for analysis. Remarkably, the PSAso response for patients who received Enza after BAT was 72.7% compared to 25.5% for patients receiving Enza immediately after Abi, FIG. 19D. Objective response in the Enza post-BAT patients was 28.6% compared to 4.2% post-Abi, FIG. 19B. […] The logical extension of these findings and the hypothesis of this proposal is that patients are likely to respond again to further repeat cycles of BAT and Enza, but this treatment strategy has yet to be explored in the clinical trial setting.

LNCaP cells [6] = assay: Putrescine abundance by HPLC in cells and media; format: cell-based, human; conditions: 10 nM
Excerpt: as §1

VCaP cells = assay: Colony formation (clonal survival); format: cell-based, human; conditions: Homo sapiens, VCaP; 0.5 nM
Excerpt: (§3) FIG. 3A. […] Ns, not significant. FIG. 3B. […] Ns, not significant. FIG. 3C. […] P values by ANOVA;

LNCaP cells [7] = assay: Colony formation (clonal survival); format: cell-based, human; conditions: Homo sapiens, LNCaP; 0.5 nM
Excerpt: as §3

[8] = tested on: MYC in LNCaP and VCaP cells; assay: MYC expression by western blot, RT-PCR, RNAseq; format: cell-based, human; conditions: to the level of SPA monotherapy
Excerpt: as §2

[9] = tested on: SKCaP-1R patient-derived xenograft tumors; assay: Global metabolomics of SKCaP-1R tumors; format: in vivo, castrated NSG mice; conditions: 14 days of treatment
[10] = tested on: patients with advanced CRPC, long-term castrates; conditions: cited from earlier work
patients with CRPC [11] = conditions: cited from earlier work
[12] = tested on: patients with early CRPC (rising PSA and minimal bone disease); conditions: cited from earlier work

C[C@]12CC[C@H](O)CC1=CC[C@@H]1[C@@H]2CC[C@]2(C)C(c3cccnc3)=CC[C@@H]12 [Abi]
PSA50 response to re-exposure (re-challenge) post-BAT ([1]; re-exposed to agent progressed on before BAT): 21% | patients with >50% PSA decline on second line therapy ([2]; post-BAT): Four of 4

C[C@]12CC[C@H]3[C@@H](CCC4=CC(=O)CC[C@@]43C)[C@@H]1CC[C@@H]2OC(=O)CCC1CCCC1 [BAT, androst-4-en-3-one, 17-(3-cyclopentyl-1-oxopropoxy)-, (17ß)-]
PSA50 response rate (patients with CRPC [3]; 56 days of BAT monotherapy, mCRPC): approximately 25% | PSA50 response rate (patients with CRPC [3]; 64 days of BAT monotherapy, mCRPC): approximately 25% | PSA/objective (biochemical and objective) response (patients with CRPC [3]; human, in vivo): 20-30% | quality of life (patients with CRPC [3]; human, in vivo): improved quality of life | objective response rate (patients with CRPC [3]; mCRPC, monotherapy): approximately 30% | plasma putrescine abundance (patients with CRPC [4]): increased | MYC expression in tumor biopsies (MYC): decreased | QoL surveys (FACIT Fatigue, IIEF, SF-36 subscales) ([1]; BAT compared to baseline on ADT): significant improvement | Adverse events to BAT, grade ([1]; in vivo): primarily Grade 1-2 | patients with grade 3 hypertension attributed to BAT ([1]; in vivo): 3 patients | PSA50 response to BAT ([1]; post-Abi (Cohort B)): 18% | PSA50 response to BAT ([1]; post-Enza (Cohort A)): 30% | subjects experiencing an AE ([2]; BAT monotherapy phase): four | patients developing new bone metastases ([2]; completing 3 months of therapy): None of the 14 patients | AEs during BAT monotherapy phase ([2]; in vivo): rare and low grade | new pain, skeletal events or urinary obstruction due to prostate cancer ([2]; in vivo): None of the 14 patients | patients with decline in PSA from baseline ([2]; in vivo): Seven of fourteen | PSA decline/response and objective responses, patients ([2]; patients who completed three cycles): 50% | median time to PSA progression ([2]; seven patients with PSA decline, range 95 to 454 days): 221 days | complete response (CR) ([2]; ten RECIST-evaluable subjects): 10% | partial responses (PRs) ([2]; ten RECIST-evaluable subjects): 40% | stable disease ([2]; ten RECIST-evaluable subjects, median follow up 91 days): 30% | progressive disease (PD) ([2]; ten subjects with RECIST-evaluable soft tissue metastases): 20% | PSA50 response ([5]; BAT after Enza (crossover)): 22.2% | PSA50 response ([5]; initial treatment immediately after Abi, no prior crossover): 26.4% | clinical/radiographic PFS ([5]; randomized arms): 5.62 m | Objective response ([5]; randomized arms, post-Abi): 24.4%

C[C@]1(O)CC[C@H]2[C@@H]3CCC4=CC(=O)CCC4=C3C=C[C@@]21C [R1881, 17α-methyl-19-nor-δ9,11-testosterone]
putrescine, intracellular and extracellular (LNCaP cells [6]): Marked intracellular and extracellular accumulation | inhibition at 0.0005 µM (VCaP cells): ~15% | inhibition at 0.0005 µM (LNCaP cells [7]): ~15%

N=C(N)c1cccc2c1CC/C2=N\N=C(N)N [SAM486]
rescue of MYC in cells treated with SPA and DFMO [8]: phenocopied

C[S+](CC[C@H](N)C(=O)O)C[C@H]1O[C@@H](n2cnc3c(N)ncnc32)[C@H](O)[C@@H]1O (stereo partly shown) [SAM, S-adenosylmethionine]
rescue of MYC in cells treated with SPA and DFMO [8]: sufficient to rescue MYC

CC(O)(CS(=O)(=O)c1ccc(F)cc1)C(=O)Nc1ccc(C#N)c(C(F)(F)F)c1 (stereo not shown) [bicalutamide]
PSA decline upon re-challenge ([2]; post-BAT): 30.9%

CC1(C)NC(=O)N(c2ccc([N+](=O)[O-])c(C(F)(F)F)c2)C1=O [nilutamide]
PSA decline upon re-challenge ([2]; post-BAT): 44.3%

C[C@]12CC[C@H]3[C@@H](CCC4=CC(=O)CC[C@@]43C)[C@@H]1CC[C@@H]2O [testosterone]
abundance of polyamine precursors ornithine and SAM in tumors [9]: decreased | abundance of polyamines putrescine and spermine in tumors [9]: increased | clinical improvement (pain, prostate size, phosphatases) ([10]; Brendler et al. 1949, parenteral): considerable improvement in several patients | patients with subjective improvement ([10]; long-term castrate group, at least one month): 4 of 5 | patients with decline of acid phosphatase ([10]; longer course of testosterone): 2/5

C[C@]12CC[C@H]3[C@@H](CCC4=CC(=O)CC[C@@]43C)[C@@H]1CC[C@@H]2O [transdermal T]
grade 3 or 4 toxicities, pain flares (patients with CRPC [11]; 7.5 mg/day): no grade 3 or 4 toxicities and no pain flares | objective responses (patients with CRPC [11]; 7.5 mg/day): No objective responses | patients with >50% PSA decline (patients with CRPC [11]; 12 patients): one | patients with at least 20% PSA declines (patients with CRPC [11]; 12 patients): Four | median concentration of T ([12]; 2.5 mg/day transdermal): 305 ng/dL | median concentration of T ([12]; 5.0 mg/day transdermal): 308 ng/dL | median concentration of T ([12]; 7.5 mg/day transdermal): 297 ng/dL | patients with a decrease in PSA ([12]; 15 patients): 20% | grade 3 or 4 toxicities ([12]; in vivo): no grade 3 or 4 toxicities were observed with the exception of one person | largest decrease in PSA ([12]; in vivo): 43% | patients with symptomatic progression ([12]; in vivo): one
